Literature values as cited in patent US20210205766A1, “METHODS AND RELATED APPARATUS FOR PROVIDING A PROCESSING SOLUTION FOR A FOOD PROCESSING APPLICATION” (Zee Company, Inc., priority 2016, published 2021).

Details: about half active (free), about half dissociated (bound) at pH of about 8.4

For peroxyacetic acid [PAA], the pKA is given as “about 8.4”.
